{"source": "paper doi:10.1101/2022.01.05.475095v1", "about": "(biorxiv, 2022)", "data": [{"target": "T1, SARS-CoV-2 Mpro (Severe acute respiratory syndrome coronavirus 2, UniProt P0DTD1)", "test": "fluorogenic quenched peptide cleavage assay", "assay_type": "biochemical", "conditions": "not given", "units": {"IC50": "nM"}, "values": [{"smiles": "O=C1C(Sc2ccccc2)=C(Sc2ccccc2)C(=O)c2ccccc21", "note": "[compound 379, 379]", "IC50": "630 ± 40"}, {"smiles": "COc1ccc(SC2=C(Sc3ccc(OC)cc3)C(=O)c3ccccc3C2=O)cc1", "note": "[compound 382, 382]", "IC50": "410 ± 20"}, {"smiles": "CC(=O)NC1=CC(=O)c2c(cccc2[N+](=O)[O-])C1=O", "note": "[compound 415, 415]", "IC50": "5000 ± 200"}]}, {"target": "T1, SARS-CoV-2 Mpro", "test": "biochemical", "conditions": "read-out: % inhibition at 10 μM", "units": {"inhibition at 10 µM": "%"}, "values": [{"smiles": "CC(=O)c1ccc(N(Cc2cn(S(=O)(=O)c3ccc(C)cc3)nn2)C2=CC(=O)c3ccccc3C2=O)cc1", "note": "[compound 318, 318]", "inhibition at 10 µM": "45 ± 13"}]}, {"target": "T1, SARS-CoV-2 Mpro", "test": "biochemical", "conditions": "read-out: Mpro % inhibition at 10 µM", "units": {"inhibition at 10 µM": "%"}, "values": [{"smiles": "CC1(C)OC2=C(C(=O)C(=O)c3ccccc32)C1n1cc(-c2ccccc2)nn1", "note": "(stereo not shown) [compound 159]", "inhibition at 10 µM": "35 ± 1"}, {"smiles": "CC1(C)OC2=C(C(=O)C(=O)c3ccccc32)C1n1cc(CNC2=CC(=O)c3ccccc3C2=O)nn1", "note": "(stereo not shown) [compound 189]", "inhibition at 10 µM": "25 ± 2"}, {"smiles": "CC1(C)OC2=C(C(=O)C(=O)c3ccccc32)C1n1cc(CNC2=C(Br)C(=O)c3ccccc3C2=O)nn1", "note": "(stereo not shown) [compound 191]", "inhibition at 10 µM": "55 ± 3"}, {"smiles": "Cc1ccc(S(=O)(=O)n2cc(CN(C3=CC(=O)c4ccccc4C3=O)c3ccc(Br)cc3)nn2)cc1", "note": "[compound 314]", "inhibition at 10 µM": "36 ± 2"}, {"smiles": "Cc1ccc(S(=O)(=O)n2cc(CNC3=CC(=O)c4ccccc4C3=O)nn2)cc1", "note": "[compound 319]", "inhibition at 10 µM": "5 ± 2"}, {"smiles": "Cc1ccc(S(=O)(=O)n2cc(CNC3=C(Cl)C(=O)c4ccccc4C3=O)nn2)cc1", "note": "[compound 320, 320]", "inhibition at 10 µM": "11 ± 6"}, {"smiles": "Cc1ccc(S(=O)(=O)n2cc(CNC3=C(Br)C(=O)c4ccccc4C3=O)nn2)cc1", "note": "[compound 321, 321]", "inhibition at 10 µM": "40 ± 8"}, {"smiles": "O=C1C(Sc2ccccc2)=C(Sc2ccccc2)C(=O)c2ccccc21", "note": "[compound 379]", "inhibition at 10 µM": 100}, {"smiles": "O=C1C(Sc2ccc(Br)cc2)=C(Sc2ccc(Br)cc2)C(=O)c2ccccc21", "note": "[compound 380, 380]", "inhibition at 10 µM": "12 ± 3"}, {"smiles": "COc1ccc(SC2=C(Sc3ccc(OC)cc3)C(=O)c3ccccc3C2=O)cc1", "note": "[compound 382]", "inhibition at 10 µM": 100}, {"smiles": "CC(=O)NC1=CC(=O)c2cccc(O)c2C1=O", "note": "[compound 414, 414]", "inhibition at 10 µM": "29 ± 2"}, {"smiles": "CC(=O)NC1=CC(=O)c2c(cccc2[N+](=O)[O-])C1=O", "note": "[compound 415, 415]", "inhibition at 10 µM": 100}, {"smiles": "Cc1ccc(S(=O)(=O)c2cccc3c2C(=O)c2ccccc2C3=O)cc1", "note": "[compound 477, 477]", "inhibition at 10 µM": "5 ± 2"}, {"smiles": "CC1(C)OC2=C(CC1Br)C(=O)C(=NNc1ccccc1)c1ccccc12", "note": "(stereo not shown) [compound 666, 666]", "inhibition at 10 µM": "5 ± 5"}, {"smiles": "CC1(C)CC2=C(O1)c1ccccc1C(=NNc1ccccc1)C2=O", "note": "[compound 673, 673]", "inhibition at 10 µM": "8 ± 3"}]}]}
